Test results from US12428455B2, “Dominant negative CEBPB and CEBPD proteins and methods of use for decreasing viability of neoplastic cells” (The Trustees of Columbia University in the City of New York, priority 2018, dated 2025).
No end group written: not given here.

Experiments:
Assay type in all cases: cell-based
[1] = tested on: normal human astrocytes; test: Survival after peptide treatment, astrocytes; conditions: 6 days, 0 μM to 50 μM; stock without BSA
Description: Replicate cultures of HIEC-6 non-cancer human intestinal epithelial cells, MCF10A non-cancer human breast epithelial cells, or normal human astrocytes were exposed to CP-DN-CEBPB or CP-DN-CEBPD, for 6 days at doses of 0 μM to 50 μM. […] Stock solutions of the peptides were prepared in buffer without added bovine serum albumin (BSA).

[2] = tested on: T98G and HCT116 cells; test: Combination with gamma radiation, overall conclusion; conditions: 2 Gy or 5 Gy; immediate or delayed peptide treatment
Description: Replicate cultures of T98G and HCT116 cells were exposed to 2 Gy or 5 Gy of gamma radiation. Immediately, the cultures were treated with 3 μM, 10 μM, or 20 μM CP-dn-CEBPB and CP-dn-CEBPD peptides, maintained for 6 days, and then assessed for cell number. […]
Replicate cultures of T98G and HCT116 cells were exposed to 2 Gy or 5 Gy of gamma radiation. One day later, the cultures were treated with 0.05 μM, 0.5 μM, or 5 μM CP-dn-CEBPB and CP-dn-CEBPD peptides, maintained for 6 days, and then assessed for cell number. The bar graphs of FIGS. 24A (T98G, CP-dn-CEBPB), 24C (T98G, CP-dn-CEBPBD, 24E (HCT116, CP-dn-CEBPD), and 24G (HCT116, CP-dn-CEBPD) show relative cell numbers for each condition as compared to untreated controls. The line graphs of FIGS. 24B (T98G, CP-dn-CEBPB), 24D (T98G, CP-dn-CEBPBD, 24F (HCT116, CP-dn-CEBPB), and 24H (HCT116, CP-dn-CEBPD) show the response as normalized in each case so that 100 represents the relative number of surviving cells that received the indicated level of radiation treatment, but no peptide treatment. Calculated Combination Indexes (CI) are T98G, CI=0.61±0.05 for CP-dn-CEBPB, 0.68±0.07 for CP-dn-CEBPD; HCT116, 0.89±0.04 for CP-dn-CEBPB, 0.86±0.05 for CP-dn-CEBPD. […]

[3] = tested on: MCF7 cells; test: Combination with paclitaxel, cell number, MCF7; conditions: 1 nM or 5 nM paclitaxel and 3, 10 or 20 μM peptide, 6 days
Description: Replicate cultures of T98G, MDA-MB 231, and MCF7 cells were treated with 1 nM or 5 nM paclitaxel and 3 μM, 10 μM, or 20 μM CP-dn-CEBPB and CP-dn-CEBPD peptides, maintained for 6 days, and then assessed for cell number. The bar graphs of FIGS. 26A (T98G, CP-dn-CEBPB), 26C (T98G, CP-dn-CEBPBD, 26E (MDA-MB-231, CP-dn-CEBPBD), 26G (MDA-MB-231, CP-dn-CEBPD), 26I (MCF7, CP-dn-CEBPBB), and 26K (MCF7, CP-dn-CEBPBD) show relative cell numbers for each condition as compared to untreated controls. The line graphs of FIGS. 26B (T98G, CP-dn-CEBPB), 26D (T98G, CP-dn-CEBPBD), 26F (MDA-MB-231, CP-dn-CEBPB), 26H (MDA-MB-231, CP-dn-CEBPD), 26J (MCF7, CP-dn-CEBPB), and 26L (MCF7 CP-dn-CEBPBD) show the response as normalized in each case so that 100 represents the relative number of surviving cells that received the indicated level of paclitaxel, but no peptide treatment. Calculated combination indices (CI) were as follows: MCF7: CI=0.41±0.04 for CP-dn-CEBPB; 0.44±0.04 for CP-dn-CEBPD; MDA-MB-231: 0.74±0.03 for CP-dn-CEBPB; 0.74±0.05 for CP-dn-CEBPD; T98G: CI=0.84±0.06 for CP-dn-CEBPB and 0.75±0.07 for CP-dn-CEBPD.

[4] = tested on: MDA-MB 231, HCT116, and A375 cells; test: Peptide treatment after doxorubicin pre-treatment, cell number; conditions: for sensitivity of cells to peptide with or without doxorubicin pre-treatment: 100 nM doxorubicin 24 hours, then 1, 3, 10 or 20 μM peptide, 6 days; for effect on reversibly non-growing or slow-growing cancer cells: after pre-treatment with 100 nM doxorubicin for 24 hours
Description: Replicate cultures of MDA-MB 231, HCT116, and A375 cells were pretreated with 100 nM doxorubicin for 24 hours, and then treated with 1 μM, 3 μM, 10 μM, or 20 μM CP-dn-CEBPB and CP-dn-CEBPD peptides, maintained for 6 days, and then assessed for cell number. The bar graphs of FIGS. 31A (MDA-MB 231, CP-dn-CEBPB), 31C (MDA-MB 231, CP-dn-CEBPBD, 31E (HCT116, CP-dn-CEBPBD), 31G (HCT116, CP-dn-CEBPD), 31I (A375, CP-dn-CEBPBB), and 31K (A375, CP-dn-CEBPBD) show relative cell numbers for each condition as compared to untreated controls. The line graphs of FIGS. 31B (MDA-MB 231, CP-dn-CEBPB), 31D (MDA-MB 231, CP-dn-CEBPBD), 31F (HCT116, CP-dn-CEBPB), 31H (HCT116, CP-dn-CEBPD), 31J (A375, CP-dn-CEBPB), and 31L (A375, CP-dn-CEBPBD) show the response as normalized in each case so that 100 represents the relative number of surviving cells that received the indicated level of doxorubicin, but no peptide treatment.

Sequence	survival of astrocytes [1]	kind of combined effect with gamma radiation [2]	combination index (CI) with paclitaxel [3]	sensitivity of cells to peptide with or without doxorubicin pre-treatment [4]	effect on reversibly non-growing or slow-growing cancer cells [4]
RQIKIWFQNRRMKWKKLETQHKVLELTAENERLQKKVEQLSRELSTLRNLFKQL [CP-DN-CEBPB]	neither CP-DN-CEBPB or CP-DN-CEBPD affected survival of astrocyte	synergistic effect	0.41±0.04	retain similar sensitivity	effective to treat reversibly non-growing or slow-growing cancer cells
RQIKIWFQNRRMKWKKLVELSAENEKLHQRVEQLTRDLAGLRQFFK [CP-DN-CEBPD]	neither CP-DN-CEBPB or CP-DN-CEBPD affected survival of astrocyte	synergistic effect	0.44±0.04	retain similar sensitivity	effective to treat reversibly non-growing or slow-growing cancer cells
